Experimental findings from patent US20150119394A1, “Insulin-Like Growth Factor-1 Receptor Inhibitors” (Merck Sharp & Dohme Corp., priority 2012, published 2015) are described below.

pIC50: −log10 of the molar value.

A word on the Cmax: it is the maximum level reached in the sampled fluid or tissue. As usually defined, the half-life is the time needed for the level to fall by half in the phase considered. A low value points to rapid decline. The inhibition is how much of the control response was suppressed.

Series [1] addresses T1, intracellular kinase domain of human IGF-1R (GST fusion protein) (Homo sapiens, UniProt P08069).
T1 construct: IGFRK and IRK enzyme used for the assay was intracellular kinase domain of human IGF-1R; GST; made in house
As to the kind of experiment: In vitro IGF-1R kinase assay (HTRF). The following applies: ATP 20 μM, IGFRK 0.25 nM. Format: biochemical.

The nature of series [2]: Oral absorption in Swiss mice. In kind it is in vivo. The following applies: 10 mg/kg p.o.; for Cmax / half-life / AUC(0-inf): male, mouse, plasma, po; for AUC(0-inf): read-out: AUC0-infinity. The procedure: Oral absorption of different compounds was ascertained in Swiss mice. The procedure followed was as detailed below:
Species: Swiss mice, overnight fasted state
Sex and weight: Male, in the weight range of 25-30 g
Number of animals: 18 animals divided into six groups (n=3) and bled as follows:
Formulation: Compound suspended in 0.5% carboxymethylcellulose or 0.25% methylcellulose
Blood (250 μL) is collected from the retro-orbital sinus at designated time points from each mouse using heparinized bleeding capillaries into micro-centrifuge tubes containing 5 μL EDTA (200 mM) as anticoagulant. Plasma is separated by centrifugation at 10000 rpm for 5 min and samples stored at −70° C. until bioanalysis.
On the day of analysis, plasma samples are thawed at room temperature. An aliquot (100 μL) of each plasma sample is spiked individually with 10 μL of internal standard. The samples are then vortexed for 10 seconds followed by addition of 1 mL of extraction solvent and vortexed for 5 minutes. The samples are then centrifuged at 10000 rpm for 5 minutes at 4° C. Supernatants (800 μL) are removed and transferred to glass tubes and evaporated to dryness under nitrogen. The dried residues are reconstituted using 100 μL of 90:10% v/v acetonitrile:MilliQ water. The reconstituted samples are vortexed, centrifuged and injected into LC-MS/MS for analysis. The calibration curve is prepared in the range of 0.5 to 5000 ng/mL in mouse plasma for quantitation.

Series [3] concerns A673 (Ewing's Sarcoma) cancer cell line. Put plainly: Anti-proliferative assay (MTS / CCK-8). In kind it is cell-based. As to conditions: for anti-proliferative activity as compared to compound 999: Ewing's Sarcoma cell line; for pIC50: Homo sapiens, A673 (Ewing's Sarcoma), 72 hours, 100 ng/mL IGF, read-out: Anti-proliferation IC50. The procedure:
Anti-proliferative potential of compounds was tested using various cell lines (details provided in Table 2) by MTS (Promega, Cat # G1111), a tetrazolium compound ((3-(4,5-dimethylthiazol-2-yl)-5-(3-carboxymethoxyphenyl)-2-(4-sulphophenyl)-2Htetrazolium, inner salt; MTS) and Cell Counting kit-8 (CCK-8 a Dojindo's highly watersoluble tetrazolium salt of WST-8 [2-(2-methoxy-4-nitrophenyl)-3-(4-nitrophenyl)-5-(2,4-disulfophenyl)-2H-tetrazolium, monosodium salt]). MTS is a colorimetric assay for determining the number of viable cells in proliferation, cytotoxicity or chemosensitivity assays. This is used with an electron coupling reagent PMS (Phenazine methosulfate). MTS is bioreduced by cells into a formazan that is soluble in tissue culture medium. The absorbance of the formazan at 490 nm can be measured directly from 96 well assay plates without additional processing. Dehydrogenase enzymes found in metabolically active cells accomplish the conversion of MTS into the aqueous soluble formazan. The quantity of formazan product is directly proportional to the number of living cells in culture. In CCK-8, WST-8 is reduced by dehydrogenases in cells to give a yellow colored product formazan, which is measured at 450 nm.
For experimental purposes, cells were seeded at a density of 3000-5000 cells per well in 180 μL/well volume in transparent 96 well tissue culture plate (NUNC, USA) and incubated overnight at 37° C., 5% CO2. Next day before adding compound the medium was replaced and 180 μL, of fresh medium added with the 100 ng/mL IGF without FCS followed by addition of 20 μL of 10× compound (10 mM stock made in DMSO and then further dilutions were made in medium, final DMSO concentration should not exceed 0.5%) and incubated for 72 hours in humidified 5% CO2 incubator at 37±1° C. After incubation medium was replaced with 200 μL of medium containing 20 μL MTS reagent per well. Plates were incubated for 3-4 hours and absorbance was measured at 490 nm on Spectrophotometer (SpectraMax, Molecular Devices). Percentage cytotoxicity and IC50 was calculated using SoftMax software. CCK-8 was used for suspension cell lines. Cell seeding and compound addition was done on same day. Following the incubation, 10 μL of CCK-8 solution was added in each well. After 4 hour incubation, the absorbance was determined at 450 nm using Spectrophotometer (SpectraMax, Molecular Devices). In every experiment, each condition was run in triplicate wells.

A further series addresses T2, CYP3A4 (Homo sapiens, UniProt P08684).
T2 construct: purchased Invitrogen (Vivid screening kits)
Put plainly: CYP inhibition fluorescence assay (rhCYP450, Vivid Invitrogen kit). Format: in vitro ADME. As to conditions: for inhibition at 10 uM: human, read-out: % inhibition @ 10 uM 3A4; for hepatic CYP3A4 inhibition as compared to compound 999: 10 uM. The procedure: (§1) The % inhibition @ 10 uM data was generated from an rhCYP450/fluorescence assay according to the Vivid Invitrogen screening kits. The compounds were screened against 5 CYP450 (1A2, 2C9, 2C19, 2D6, and 3A4) isoforms. CYP3A4 constitutes 28% of the human hepatic CYP and is responsible for metabolism of 50% of all drugs. In this class of drugs, CYP3A4 is the most important CYP and thus it is highly desirable not to inhibit CYP3A4. The lower the percentage inhibition, the lower the CYP450 inhibitory liability of that specific compound.

The target in a further series is T3, CYP2D6 (Homo sapiens, UniProt P10635).
T3 construct: purchased Invitrogen (Vivid screening kits)
T3 sequence (P10635 whole entry): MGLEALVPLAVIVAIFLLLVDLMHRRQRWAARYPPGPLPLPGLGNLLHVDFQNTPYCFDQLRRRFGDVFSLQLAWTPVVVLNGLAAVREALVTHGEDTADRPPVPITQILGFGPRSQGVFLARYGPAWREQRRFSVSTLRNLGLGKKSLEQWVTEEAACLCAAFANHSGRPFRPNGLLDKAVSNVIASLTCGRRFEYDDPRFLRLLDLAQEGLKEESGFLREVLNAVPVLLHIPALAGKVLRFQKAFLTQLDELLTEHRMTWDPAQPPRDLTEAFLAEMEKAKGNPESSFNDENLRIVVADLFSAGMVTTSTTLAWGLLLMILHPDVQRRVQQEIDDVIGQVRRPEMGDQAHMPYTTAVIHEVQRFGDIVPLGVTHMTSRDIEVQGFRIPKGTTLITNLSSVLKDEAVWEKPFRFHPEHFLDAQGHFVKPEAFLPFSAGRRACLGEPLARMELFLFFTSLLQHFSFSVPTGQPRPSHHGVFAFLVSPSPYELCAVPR
The series is described as above. The following applies: for inhibition at 10 uM: human, read-out: % inhibition @ 10 uM 2D6. Format: in vitro ADME. The procedure: as §1

T1 sequence (P08069 999-1274 limits assumed): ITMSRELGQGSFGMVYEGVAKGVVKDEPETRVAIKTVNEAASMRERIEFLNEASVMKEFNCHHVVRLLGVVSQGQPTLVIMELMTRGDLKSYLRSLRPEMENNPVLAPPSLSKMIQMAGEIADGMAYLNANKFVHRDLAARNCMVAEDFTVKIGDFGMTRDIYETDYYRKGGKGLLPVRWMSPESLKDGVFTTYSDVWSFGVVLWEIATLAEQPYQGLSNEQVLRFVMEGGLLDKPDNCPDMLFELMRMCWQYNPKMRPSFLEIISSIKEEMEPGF
T2 sequence (P08684 whole entry): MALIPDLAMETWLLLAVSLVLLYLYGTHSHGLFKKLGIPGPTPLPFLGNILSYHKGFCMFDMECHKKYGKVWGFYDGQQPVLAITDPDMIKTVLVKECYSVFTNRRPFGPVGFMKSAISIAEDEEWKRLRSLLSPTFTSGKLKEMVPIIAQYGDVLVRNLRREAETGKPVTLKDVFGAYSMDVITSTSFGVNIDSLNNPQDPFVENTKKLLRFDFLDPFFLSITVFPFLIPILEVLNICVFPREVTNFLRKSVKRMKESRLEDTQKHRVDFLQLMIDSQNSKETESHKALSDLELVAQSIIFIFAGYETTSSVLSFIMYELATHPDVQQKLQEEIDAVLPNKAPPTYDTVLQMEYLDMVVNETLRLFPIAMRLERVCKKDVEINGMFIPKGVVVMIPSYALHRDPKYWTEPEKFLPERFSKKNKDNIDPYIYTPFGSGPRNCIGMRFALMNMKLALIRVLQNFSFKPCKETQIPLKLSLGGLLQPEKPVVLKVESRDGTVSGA

Molecule `COc1ccc(-c2cccc(OC[C@@H]3CN(S(=O)(=O)c4c(C(N)=O)[nH]c5ccc(Cl)cc45)CCO3)c2)cn1` [Compound 7, (S)-5-chloro-3-((2-((3-(6-methoxypyridin-3-yl)phenoxy)methyl)morpholino)sulfonyl)-1H-indole-2-carboxamide] showed a pIC50 in series [1] of 7.82. Besides, in series [2], the “AUC as compared to compound 999” value is “higher”, the “Cmax as compared to compound 999” value is “higher”, the concentration peaked (Cmax) at 2200 nM and the half-life was 0.9 h. Further, the AUC(0-inf) in series [2] came to 1940 ng·h/mL. In series [3], the “anti-proliferative activity as compared to compound 999” value is “higher” and the pIC50 was 9.22.
On to `NC(=O)c1[nH]c2ccc(I)cc2c1S(=O)(=O)N1CCO[C@H](COc2ccccc2)C1` [Compound 999, reference compound], for which, in series [2], the concentration peaked (Cmax) at 1200 nM, the half-life was 1.31 h and the AUC(0-inf) turned out to be 1050 ng·h/mL. Besides, in series [3], the pIC50 was 8.46. Further, on CYP3A4, the inhibition at 10 uM was 36%. Besides, the inhibition at 10 uM on CYP2D6 is 13%.
In series [1], `Cc1cc(OC[C@@H]2CN(S(=O)(=O)c3c(C(N)=O)[nH]c4ccc(Cl)cc34)CCO2)ccc1-c1ccnc(Cl)c1` [Compound 87, (S)-5-chloro-3-((2-((4-(2-chloropyridin-4-yl)-3-methylphenoxy)methyl)morpholino)sulfonyl)-1H-indole-2-carboxamide] had a pIC50 of 8.03. Also, at CYP3A4, the “hepatic CYP3A4 inhibition as compared to compound 999” value is listed as “reduced” and the inhibition at 10 uM stood at 24%. Besides, on CYP2D6, the inhibition at 10 uM amounted to 16%.
Regarding `Cc1ccc(OC[C@@H]2CN(S(=O)(=O)c3c(C(N)=O)[nH]c4ccc(Cl)cc34)CCO2)cc1-c1ccccc1` [Compound 20, (S)-5-chloro-3-((2-(((6-methyl-[1,1′-biphenyl]-3-yl)oxy)methyl)morpholino)sulfonyl)-1H-indole-2-carboxamide], in series [1], the pIC50 is 6.85. Further, in series [2], the “AUC as compared to compound 999” value is “higher”, the “Cmax as compared to compound 999” value was “higher”, the concentration peaked (Cmax) at 1980 nM and the half-life is 2.1 h. The AUC(0-inf) in series [2] came to 4710 ng·h/mL. For the same molecule, at CYP3A4, the “hepatic CYP3A4 inhibition as compared to compound 999” value is “reduced” and the inhibition at 10 uM was found to be 2%. Besides, the inhibition at 10 uM at CYP2D6 came to 25%.
For `Cc1cc(-c2ccc(OC[C@@H]3CN(S(=O)(=O)c4c(C(N)=O)[nH]c5ccc(Cl)cc45)CCO3)cc2)ccn1` [Compound 51, (S)-5-chloro-3-((2-((4-(2-methylpyridin-4-yl)phenoxy)methyl)morpholino)sulfonyl)-1H-indole-2-carboxamide], the pIC50 in series [1] is 8.37. In series [2], the “AUC as compared to compound 999” value is recorded as “higher”, the “Cmax as compared to compound 999” value was “higher”, the Cmax was 2550 nM and the half-life is 1 h. The AUC(0-inf) in series [2] amounted to 3250 ng·h/mL. Also, in series [3], the “anti-proliferative activity as compared to compound 999” value was “higher” and the pIC50 was 9.82. For the same molecule, on CYP3A4, the “hepatic CYP3A4 inhibition as compared to compound 999” value is reported as “reduced” and the inhibition at 10 uM was 13%. In addition, the inhibition at 10 uM on CYP2D6 was determined as 34%.
The molecule `CCOc1ccc(-c2cccc(OC[C@@H]3CN(S(=O)(=O)c4c(C(N)=O)[nH]c5ccc(Cl)cc45)CCO3)c2)cn1` [Compound 17, (S)-5-chloro-3-((2-((3-(6-ethoxypyridin-3-yl)phenoxy)methyl)morpholino)sulfonyl)-1H-indole-2-carboxamide] showed a pIC50 in series [1] of 8.00. In addition, on CYP3A4, the “hepatic CYP3A4 inhibition as compared to compound 999” value is “reduced”. For the same molecule, the inhibition at 10 uM stood at 2% on CYP3A4 and 13% at CYP2D6.
`NC(=O)c1[nH]c2ccc(Cl)cc2c1S(=O)(=O)N1CCO[C@H](COc2ccc(-c3ncccn3)cc2)C1` [Compound 53, (S)-5-chloro-3-((2-((4-(pyrimidin-2-yl)phenoxy)methyl)morpholino)sulfonyl)-1H-indole-2-carboxamide] gave a pIC50 in series [1] of 8.19. The results for the inhibition at 10 uM at CYP3A4 and at CYP2D6 were 37% and 0%, respectively. In addition, the “hepatic CYP2D6 inhibition as compared to compound 999” value at CYP2D6 (10 uM) is “reduced”.
`NC(=O)c1[nH]c2ccc(Cl)cc2c1S(=O)(=O)N1CCO[C@H](COc2cccc(-c3ccccc3)c2)C1` [Compound 1, (S)-3-((2-(([1,1′-biphenyl]-3-yloxy)methyl)morpholino)sulfonyl)-5-chloro-1H-indole-2-carboxamide] had a pIC50 in series [1] of 7.48. For the same molecule, in series [2], the “AUC as compared to compound 999” value is given as “higher”, the “Cmax as compared to compound 999” value was “higher”, the Cmax was found to be 8560 nM and the half-life is 5.3 h. Besides, in series [2], the AUC(0-inf) was 10900 ng·h/mL. Moreover, in series [3], the “anti-proliferative activity as compared to compound 999” value is recorded as “higher” and the pIC50 was 8.74.
